Entries after “also recorded” stand apart in the source; their conditions may differ.
What was measured:
[1] = tested on: Penicillin Binding Proteins (PBPs); assay: Gel-based ABPP with BOCILLIN-FL probe
Description: To further explore the specificity of our inhibitors, another ABPP assay was used in which the broad-spectrum FP probe was replaced with a specific probe, BOCILLIN-FL, which targets penicillin binding proteins (PBPs) using a β-lactam warhead. This probe was chosen because of ClbP's homology to AmpC β-lactamases. Since PBPs are targeted by β-lactams, it was reasoned that the similarity of their binding pockets would mean a greater chance of identifying a secondary target among this family of enzymes.

[2] = tested on: Enterococcus faecalis; assay: Bacterial MIC assay (broth dilution); format: cell-based; conditions: 15 h, read-out: MICs by compound
[3] = tested on: serine hydrolases in E. coli cell lysates; assay: Gel-based ABPP with fluorophosphonate probe (FP); format: binding; conditions: inhibitor up to 100 μM
Description: (§1) To further explore other possible targets of inhibitors 1-4, an activity-based protein profiling (ABPP) approach was used to assay their activity against a wide variety of serine hydrolases in bacterial and mammalian proteomes. […] One limitation of this assay is that ClbP is not labeled by the FP probe, so it cannot be observed as a reference for binding. Any other proteins which evade labeling by FP would also not be detected in this assay.
(§2) Activity-Based Protein Profiling. Bacterial or mammalian cell lysates were normalized to 1 mg/mL protein concentrations in PBS using the DC protein assay (Bio-Rad). 50 μL aliquots of lysates were incubated with compounds at the indicated concentrations (1 μL of a 50X stock in DMSO) for 30 minutes at room temperature and subsequently labeled with 5 μM of fluorophosphonate-PEG(4)-biotin probe (1 μL of a 50X stock in DMSO, synthesized as previously reported)^56 for 1 hour at room temperature. The reactions were mixed with 50 μL of 2X SDS protein loading buffer, boiled for 10 minutes at 95° C., and separated by SDS-PAGE. The labeled proteins were detected by IRdye-conjugated streptavidin (Li-Cor) and visualized using the GellOdyssey™ Imaging System (Li-Cor).^56

[4] = tested on: Klebsiella oxytoca; assay: Bacterial MIC assay (broth dilution); format: cell-based; conditions: 15 h, read-out: MICs by compound
[5] = tested on: E. coli BW25113 BACpks; assay: Metabolomics (LC-MS, XCMS); format: cell-based; conditions: BW pks (and NC101), 1 μM 3 versus DMSO
Method: Metabolomics. One 5 mL starter culture each of E. coli BW25113 BACpks and E. coli BW25113 BACpksΔclbP was inoculated from frozen stocks and grown overnight at 37° C. in LB medium supplemented with 35 μg/ml chloramphenicol (LB+cam). Overnights were diluted 1:1000 in fresh LB+cam+1% DMSO with or without 1 μM inhibitor 3 in 5 replicates for each condition and grown for 20 hours at 37° C. A 500 μL aliquot was taken from each replicate, flash frozen in liquid nitrogen and lyophilized to dryness. Lyophilized pellets were extracted with 500 μL LC-MS grade methanol and prepared in the same manner as described above for metabolomics. Samples were analyzed by LC-MS on an Agilent Technologies 1200 series LC with a Phenomenex Luna C18 column (5 μm, 100 Å, 250×4.6 mm) coupled to an Agilent 6530 Quadrupole-Time of Flight mass spectrometer. The following chromatography conditions were used: 99% Solvent A in Solvent B for 1.5 minutes, linear gradient to 0% Solvent A in Solvent B over 43.5 minutes, 0% Solvent A for 8 minutes, linear gradient back to 99% Solvent A over 1 minute, equilibration in 99% solvent A for 9 minutes at flow rate of 0.4 mL/min and a 10 uL injection volume. Solvent A is water with 0.1% formic acid, solvent B is acetonitrile with 0.1% formic acid. […]

[6] = tested on: HeLa cells infected with NC101; assay: DNA adduct detection by LC-MS; format: cell-based, human; conditions: 1 μM 3
Method: DNA adduct detection. Infections for DNA adduct detection were carried out using the protocol described above in 6-well plates where all volumes and cell numbers were increased by a factor of 4 accordingly. After trypsinization, cell pellets were frozen at −80° C. until analysis. DNA was isolated from cells as previously reported.^15 DNA samples (100 μL, 31-48 μg) in silanized glass vials were incubated at 80° C. for 1 hour. After the incubation, samples were allowed to cool to room temperature, and volumes were increased to 200 μL by adding LC-MS grade water. Samples were filtered using a Centrifree Ultrafiltration Device (30K molecular weight, Millipore Sigma) at 2000× g for 15 minutes. Samples were dried under vacuum and stored at −20° C. Mass spectrometric data was acquired with the following conditions. The dried samples were reconstituted in 10 μL of H2O and 4 μL of the resulting solution were injected onto an UltiMate 3000 RSLCnano UPLC (Thermo Fisher Scientific) system equipped with a 5 μL injection loop. Separation was performed with a capillary column (75 μm ID, 20 cm length, 10 μm orifice) created by hand packing a commercially available fused-silica emitter (New Objective, Woburn, MA) with 5 μm Luna C18 bonded separation media (Phenomenex, Torrance, CA). […]

[7] = tested on: serine hydrolases in HEK293T cell lysates; assay: Gel-based ABPP with fluorophosphonate probe (FP); format: binding, human; conditions: inhibitor up to 100 μM
Description: as §1, §2

CC1(C)OB([C@@H](CC(N)=O)NC(=O)CCCc2ccccc2)OC1(C)C [Compound 3]
competitive binding to BOCILLIN-FL labeled PBPs ([1]; B. cereus ATCC14579 lysate): none of these PBPs showed any binding; also recorded: no competitive binding
competitive binding to BOCILLIN-FL labeled PBPs ([1]; E. coli NC101 lysate): none of these PBPs showed any binding; also recorded: no competitive binding
MIC [2]: > 200 µM
change in protein labeling by FP probe [3]: does not identify any significant targets
MIC [4]: > 200 µM
changes in metabolites versus clbP deletion [5]: resulted in the same changes in metabolites as genetic deletion of clbP
colibactin-derived DNA adduct formation [6]: could effectively suppress formation of a colibactin-derived DNA adduct; also recorded: sufficient to suppress adduct formation to a degree similar to genetic deletion of clbP; also recorded: prevents
change in protein labeling by FP probe [7]: does not identify any significant targets

From patent US12115176B2, “Methods and compositions relating to ClbP inhibition” (PRESIDENT AND FELLOWS OF HARVARD COLLEGE, priority 2021, dated 2024)
